# Laboratory results taken from the kinase profiling compilation of Christmann-Franck et al. (2016).
# Assays:
# Experiment in all cases: radiometric filter-binding kinase assay, Kinase HotSpot
# Settings in all cases: compound 0.5 µM; ATP 10 µM
# DMPK (human) = DMPK (human) (UniProt Q09013)
# PASK (human) = PASK (human) (UniProt Q96RG2)
# [1] = biological target: JAK1 JH1 catalytic (human) (UniProt P23458)
# CAMK1G (human) = CAMK1G (human) (UniProt Q96NX5)
# WNK2 (human) = WNK2 (human) (UniProt Q9Y3S1)
# BRSK2 (human) = BRSK2 (human) (UniProt Q8IWQ3)
# CDK5 CDK5R1 p35 (human) = CDK5 CDK5R1 p35 (human) (UniProt Q00535+Q15078)
# MARK2 (human) = MARK2 (human) (UniProt Q7KZI7)
# CSNK1D (human) = CSNK1D (human) (UniProt P48730)
# CSNK1D (human), sequence (P48730 whole entry, looked up): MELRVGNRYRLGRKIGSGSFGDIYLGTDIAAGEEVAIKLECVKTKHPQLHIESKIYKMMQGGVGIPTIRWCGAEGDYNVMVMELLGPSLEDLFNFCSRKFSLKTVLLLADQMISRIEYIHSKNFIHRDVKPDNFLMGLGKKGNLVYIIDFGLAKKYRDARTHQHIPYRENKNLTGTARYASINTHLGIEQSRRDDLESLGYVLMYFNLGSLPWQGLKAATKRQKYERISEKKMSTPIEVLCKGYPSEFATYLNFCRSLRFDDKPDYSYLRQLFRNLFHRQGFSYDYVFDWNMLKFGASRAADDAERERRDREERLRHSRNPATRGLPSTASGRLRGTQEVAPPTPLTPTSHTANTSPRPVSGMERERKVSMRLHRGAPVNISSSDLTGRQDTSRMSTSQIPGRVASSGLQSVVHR
# MERTK (human) = MERTK (human) (UniProt Q12866)
# MATK (human) = MATK (human) (UniProt P42679)
# MUSK (human) = MUSK (human) (UniProt O15146)
# CSNK1G3 (human) = CSNK1G3 (human) (UniProt Q9Y6M4)
# SLK (human) = SLK (human) (UniProt Q9H2G2)
# NEK2 (human) = NEK2 (human) (UniProt P51955)
# FGFR1 (human) = FGFR1 (human) (UniProt P11362)
# TYRO3 (human) = TYRO3 (human) (UniProt Q06418)
# GSK3B (human) = GSK3B (human) (UniProt P49841)
# PTK2B (human) = PTK2B (human) (UniProt Q14289)
# PTK2B (human), sequence (Q14289 whole entry, looked up): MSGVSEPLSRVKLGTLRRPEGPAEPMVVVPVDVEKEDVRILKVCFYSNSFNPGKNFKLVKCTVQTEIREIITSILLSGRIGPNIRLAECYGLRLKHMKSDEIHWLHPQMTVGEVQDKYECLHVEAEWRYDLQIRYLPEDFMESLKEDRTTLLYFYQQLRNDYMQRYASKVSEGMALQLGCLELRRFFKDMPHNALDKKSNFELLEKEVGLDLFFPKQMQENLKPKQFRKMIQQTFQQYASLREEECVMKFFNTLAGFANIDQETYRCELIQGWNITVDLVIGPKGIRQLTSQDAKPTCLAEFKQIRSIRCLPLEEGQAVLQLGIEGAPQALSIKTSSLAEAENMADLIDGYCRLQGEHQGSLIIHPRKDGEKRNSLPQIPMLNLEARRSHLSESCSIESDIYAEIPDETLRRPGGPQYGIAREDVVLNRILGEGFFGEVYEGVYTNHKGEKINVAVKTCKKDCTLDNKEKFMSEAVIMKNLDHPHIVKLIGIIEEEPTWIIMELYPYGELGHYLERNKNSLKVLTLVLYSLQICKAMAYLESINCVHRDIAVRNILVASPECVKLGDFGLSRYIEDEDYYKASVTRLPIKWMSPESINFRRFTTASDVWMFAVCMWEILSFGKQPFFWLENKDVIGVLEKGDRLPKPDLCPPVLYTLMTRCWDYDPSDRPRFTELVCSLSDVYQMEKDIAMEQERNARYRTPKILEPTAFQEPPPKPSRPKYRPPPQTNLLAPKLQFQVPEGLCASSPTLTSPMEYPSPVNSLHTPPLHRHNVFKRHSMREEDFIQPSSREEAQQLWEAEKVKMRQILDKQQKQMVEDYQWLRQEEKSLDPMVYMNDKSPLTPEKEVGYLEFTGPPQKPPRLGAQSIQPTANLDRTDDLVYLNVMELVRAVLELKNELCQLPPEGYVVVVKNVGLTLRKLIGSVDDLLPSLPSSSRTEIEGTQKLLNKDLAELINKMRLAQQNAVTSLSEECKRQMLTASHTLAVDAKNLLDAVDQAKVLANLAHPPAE
# NTRK1 (human) = NTRK1 (human) (UniProt P04629)
# EPHB2 (human) = EPHB2 (human) (UniProt P29323)
# DCLK2 (human) = DCLK2 (human) (UniProt Q8N568)
# PLK3 (human) = PLK3 (human) (UniProt Q9H4B4)
# MST1R (human) = MST1R (human) (UniProt Q04912)
# IRAK1 (human) = IRAK1 (human) (UniProt P51617)
# IRAK1 (human), sequence (P51617 whole entry, looked up): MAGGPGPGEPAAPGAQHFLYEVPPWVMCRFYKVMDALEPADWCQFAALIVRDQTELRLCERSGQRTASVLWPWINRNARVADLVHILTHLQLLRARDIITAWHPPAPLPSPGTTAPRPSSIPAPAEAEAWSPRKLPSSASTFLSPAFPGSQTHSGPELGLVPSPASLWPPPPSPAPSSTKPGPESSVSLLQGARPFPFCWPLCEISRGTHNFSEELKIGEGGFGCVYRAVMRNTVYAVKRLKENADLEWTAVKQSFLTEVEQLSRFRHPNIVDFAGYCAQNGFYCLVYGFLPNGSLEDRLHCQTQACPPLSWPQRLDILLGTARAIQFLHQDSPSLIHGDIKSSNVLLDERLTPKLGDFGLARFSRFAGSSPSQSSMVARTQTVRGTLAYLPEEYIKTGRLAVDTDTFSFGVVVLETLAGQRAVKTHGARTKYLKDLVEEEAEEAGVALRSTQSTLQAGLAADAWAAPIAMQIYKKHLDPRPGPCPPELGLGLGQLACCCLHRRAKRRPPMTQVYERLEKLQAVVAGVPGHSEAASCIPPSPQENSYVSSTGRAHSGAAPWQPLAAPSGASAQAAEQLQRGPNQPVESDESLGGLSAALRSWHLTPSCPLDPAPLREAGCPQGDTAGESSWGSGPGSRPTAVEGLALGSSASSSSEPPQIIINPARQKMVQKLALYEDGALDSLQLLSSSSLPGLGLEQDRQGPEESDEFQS
# MAP3K9 (human) = MAP3K9 (human) (UniProt P80192)
# MAP3K9 (human), sequence (P80192 whole entry, looked up): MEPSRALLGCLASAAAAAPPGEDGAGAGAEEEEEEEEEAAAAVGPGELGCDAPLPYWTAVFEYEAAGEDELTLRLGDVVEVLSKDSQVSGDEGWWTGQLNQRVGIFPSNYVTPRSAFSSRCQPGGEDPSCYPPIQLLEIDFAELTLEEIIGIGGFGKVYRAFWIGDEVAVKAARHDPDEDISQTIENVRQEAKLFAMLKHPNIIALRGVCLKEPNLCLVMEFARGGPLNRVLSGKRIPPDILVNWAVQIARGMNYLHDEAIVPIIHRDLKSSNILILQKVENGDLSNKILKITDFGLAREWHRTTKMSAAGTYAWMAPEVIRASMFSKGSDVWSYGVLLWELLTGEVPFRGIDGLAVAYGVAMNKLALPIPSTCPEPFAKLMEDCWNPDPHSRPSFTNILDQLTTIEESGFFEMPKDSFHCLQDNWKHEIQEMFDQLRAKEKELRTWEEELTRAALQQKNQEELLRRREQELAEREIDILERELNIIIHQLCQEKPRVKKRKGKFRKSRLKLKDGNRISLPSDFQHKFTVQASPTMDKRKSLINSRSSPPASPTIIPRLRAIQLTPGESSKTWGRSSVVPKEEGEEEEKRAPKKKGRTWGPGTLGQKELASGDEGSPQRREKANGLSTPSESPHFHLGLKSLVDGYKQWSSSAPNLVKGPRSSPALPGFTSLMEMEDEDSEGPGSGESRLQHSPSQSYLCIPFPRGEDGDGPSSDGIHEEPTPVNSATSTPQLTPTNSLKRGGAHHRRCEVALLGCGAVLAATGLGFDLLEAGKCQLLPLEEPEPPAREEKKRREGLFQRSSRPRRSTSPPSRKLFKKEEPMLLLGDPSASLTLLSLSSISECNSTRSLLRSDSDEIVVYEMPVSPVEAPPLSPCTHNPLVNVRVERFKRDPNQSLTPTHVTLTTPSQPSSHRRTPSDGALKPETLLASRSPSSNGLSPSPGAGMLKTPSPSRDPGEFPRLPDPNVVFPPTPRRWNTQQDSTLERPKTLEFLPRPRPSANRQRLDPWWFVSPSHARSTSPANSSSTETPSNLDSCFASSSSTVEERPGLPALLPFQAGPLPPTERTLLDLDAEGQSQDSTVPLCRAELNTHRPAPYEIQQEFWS
# STK17A (human) = STK17A (human) (UniProt Q9UEE5)
# PLK2 (human) = PLK2 (human) (UniProt Q9NYY3)
# DYRK1B (human) = DYRK1B (human) (UniProt Q9Y463)
# EPHB4 (human) = EPHB4 (human) (UniProt P54760)
# DYRK4 (human) = DYRK4 (human) (UniProt Q9NR20)
# STK25 (human) = STK25 (human) (UniProt O00506)
# STK25 (human), sequence (O00506 whole entry, looked up): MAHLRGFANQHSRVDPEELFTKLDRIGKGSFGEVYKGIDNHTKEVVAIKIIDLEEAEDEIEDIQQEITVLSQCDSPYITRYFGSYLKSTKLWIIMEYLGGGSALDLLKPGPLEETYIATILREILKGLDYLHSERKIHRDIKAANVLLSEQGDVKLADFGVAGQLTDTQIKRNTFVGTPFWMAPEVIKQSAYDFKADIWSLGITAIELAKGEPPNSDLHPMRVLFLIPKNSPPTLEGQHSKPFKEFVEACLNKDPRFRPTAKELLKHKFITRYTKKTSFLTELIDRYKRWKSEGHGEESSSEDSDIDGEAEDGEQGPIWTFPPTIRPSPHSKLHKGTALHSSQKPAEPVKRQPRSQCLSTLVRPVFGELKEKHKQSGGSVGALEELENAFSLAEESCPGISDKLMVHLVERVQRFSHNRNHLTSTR
# GSG2 (human) = GSG2 (human) (UniProt Q8TF76)
# PHKG2 (human) = PHKG2 (human) (UniProt P15735)
# NEK6 (human) = NEK6 (human) (UniProt Q9HC98)
# PIM2 (human) = PIM2 (human) (UniProt Q9P1W9)
# CSNK1E (human) = CSNK1E (human) (UniProt P49674)
# CDK6 CCND1 (human) = CDK6 CCND1 (human) (UniProt Q00534+P24385)
# MAPK8 (human) = MAPK8 (human) (UniProt P45983)
# NTRK3 (human) = NTRK3 (human) (UniProt Q16288)
# NUAK2 (human) = NUAK2 (human) (UniProt Q9H093)
# FGFR2 (human) = FGFR2 (human) (UniProt P21802)
# PASK (human), sequence (Q96RG2 whole entry, looked up): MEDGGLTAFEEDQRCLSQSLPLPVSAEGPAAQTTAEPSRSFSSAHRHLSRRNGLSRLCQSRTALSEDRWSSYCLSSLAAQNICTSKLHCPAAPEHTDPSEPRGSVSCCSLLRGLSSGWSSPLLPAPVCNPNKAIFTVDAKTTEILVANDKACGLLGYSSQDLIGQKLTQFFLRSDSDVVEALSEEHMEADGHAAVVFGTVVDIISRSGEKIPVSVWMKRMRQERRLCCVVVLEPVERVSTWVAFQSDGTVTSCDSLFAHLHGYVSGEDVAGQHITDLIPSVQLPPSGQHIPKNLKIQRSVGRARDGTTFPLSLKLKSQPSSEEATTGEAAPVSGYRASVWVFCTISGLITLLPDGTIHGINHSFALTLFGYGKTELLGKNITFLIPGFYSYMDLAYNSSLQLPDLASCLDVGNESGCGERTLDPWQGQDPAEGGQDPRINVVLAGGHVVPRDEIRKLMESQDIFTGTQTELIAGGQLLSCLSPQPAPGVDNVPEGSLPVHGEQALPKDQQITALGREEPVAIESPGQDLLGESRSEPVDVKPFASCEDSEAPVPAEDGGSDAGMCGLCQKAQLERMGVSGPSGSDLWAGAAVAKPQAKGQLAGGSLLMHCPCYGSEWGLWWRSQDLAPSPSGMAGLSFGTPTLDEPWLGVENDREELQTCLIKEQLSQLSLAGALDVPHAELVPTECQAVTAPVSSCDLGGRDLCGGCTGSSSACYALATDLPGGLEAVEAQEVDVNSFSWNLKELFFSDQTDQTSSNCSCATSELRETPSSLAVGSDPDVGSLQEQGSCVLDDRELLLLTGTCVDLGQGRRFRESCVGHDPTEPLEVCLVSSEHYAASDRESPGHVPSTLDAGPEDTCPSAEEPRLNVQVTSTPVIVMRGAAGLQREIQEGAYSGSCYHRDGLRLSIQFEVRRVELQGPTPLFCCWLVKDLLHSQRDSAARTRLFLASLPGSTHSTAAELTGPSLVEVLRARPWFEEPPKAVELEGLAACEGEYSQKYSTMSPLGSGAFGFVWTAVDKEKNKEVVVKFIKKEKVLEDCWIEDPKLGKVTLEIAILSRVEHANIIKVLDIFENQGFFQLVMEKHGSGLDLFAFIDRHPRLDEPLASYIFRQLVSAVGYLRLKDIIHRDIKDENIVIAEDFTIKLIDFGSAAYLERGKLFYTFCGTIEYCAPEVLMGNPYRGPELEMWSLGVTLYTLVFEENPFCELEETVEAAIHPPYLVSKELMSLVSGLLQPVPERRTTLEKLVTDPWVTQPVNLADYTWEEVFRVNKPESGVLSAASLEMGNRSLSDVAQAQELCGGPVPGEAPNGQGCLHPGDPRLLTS
smiles,measurement,setting,value
CC(C)[C@H](CO)Nc1nc(Nc2cccc(Cl)c2)c2ncn(C(C)C)c2n1,residual activity,DMPK (human),108%
same,residual activity,PASK (human),93.1%
same,residual activity,[1],108%
same,residual activity,CAMK1G (human),94.9%
same,residual activity,WNK2 (human),92.4%
same,residual activity,BRSK2 (human),97.8%
same,residual activity,CDK5 CDK5R1 p35 (human),2.61%
same,residual activity,MARK2 (human),95.7%
same,residual activity,CSNK1D (human),92.2%
same,residual activity,MERTK (human),84.7%
same,residual activity,MATK (human),93.1%
same,residual activity,MUSK (human),56.8%
same,residual activity,CSNK1G3 (human),17.3%
same,residual activity,SLK (human),73.1%
same,residual activity,NEK2 (human),102%
same,residual activity,FGFR1 (human),80.6%
same,residual activity,TYRO3 (human),98.9%
same,residual activity,GSK3B (human),103%
same,residual activity,PTK2B (human),66.5%
same,residual activity,NTRK1 (human),67.3%
same,residual activity,EPHB2 (human),99.3%
same,residual activity,DCLK2 (human),100%
same,residual activity,PLK3 (human),86.4%
same,residual activity,MST1R (human),90.6%
same,residual activity,IRAK1 (human),109%
same,residual activity,MAP3K9 (human),37.8%
same,residual activity,STK17A (human),95%
same,residual activity,PLK2 (human),102%
same,residual activity,DYRK1B (human),49.9%
same,residual activity,EPHB4 (human),71.7%
same,residual activity,DYRK4 (human),91.2%
same,residual activity,STK25 (human),116%
same,residual activity,GSG2 (human),93.6%
same,residual activity,PHKG2 (human),117%
same,residual activity,NEK6 (human),91.3%
same,residual activity,PIM2 (human),105%
same,residual activity,CSNK1E (human),87.3%
same,residual activity,CDK6 CCND1 (human),67.5%
same,residual activity,MAPK8 (human),99%
same,residual activity,NTRK3 (human),15%
same,residual activity,NUAK2 (human),134%
same,residual activity,FGFR2 (human),105%
Nc1n[nH]c2nnc(-c3c(-c4ccccc4)nn4ccccc34)cc12,residual activity,DMPK (human),103%
same,residual activity,PASK (human),99.8%
same,residual activity,[1],104%
same,residual activity,CAMK1G (human),99.2%
same,residual activity,WNK2 (human),111%
same,residual activity,BRSK2 (human),96.1%
same,residual activity,CDK5 CDK5R1 p35 (human),105%
same,residual activity,MARK2 (human),104%
same,residual activity,CSNK1D (human),63.2%
same,residual activity,MERTK (human),76.4%
same,residual activity,MATK (human),95.6%
same,residual activity,MUSK (human),96.8%
same,residual activity,CSNK1G3 (human),104%
same,residual activity,SLK (human),94%
same,residual activity,NEK2 (human),95.3%
same,residual activity,FGFR1 (human),94.7%
same,residual activity,TYRO3 (human),97.6%
same,residual activity,GSK3B (human),109%
same,residual activity,PTK2B (human),95.4%
same,residual activity,NTRK1 (human),101%
same,residual activity,EPHB2 (human),93.1%
same,residual activity,DCLK2 (human),100%
same,residual activity,PLK3 (human),100%
same,residual activity,MST1R (human),102%
same,residual activity,IRAK1 (human),105%
same,residual activity,MAP3K9 (human),99.9%
same,residual activity,STK17A (human),99.9%
same,residual activity,PLK2 (human),107%
same,residual activity,DYRK1B (human),101%
same,residual activity,EPHB4 (human),98.5%
same,residual activity,DYRK4 (human),95.3%
same,residual activity,STK25 (human),84.2%
same,residual activity,GSG2 (human),97.1%
same,residual activity,PHKG2 (human),82.6%
same,residual activity,NEK6 (human),95.6%
same,residual activity,PIM2 (human),91.7%
same,residual activity,CSNK1E (human),80.9%
same,residual activity,CDK6 CCND1 (human),100%
same,residual activity,MAPK8 (human),98%
same,residual activity,NTRK3 (human),76.6%
same,residual activity,NUAK2 (human),87.3%
same,residual activity,FGFR2 (human),102%
